Results as given in patent publication US8188078B2 (Sanofi-Aventis, priority 2007, dated 2012).

Legend:
[1] = target: RON (Homo sapiens, UniProt Q04912); experiment: Test B: HTRF RON test in 96-well format; type: biochemical
Procedure: B) HTRF RON Test in 96-Well Format
The inhibitory potency (IC50) of molecules on the enzymatic activity of kinase phosphorylation RON is determined by the HTRF technique. The activity of the kinase is evaluated by measuring the phosphorylation of the substrate polyGAT by the enzyme, in the presence of ATP.
Final RON 5 nM is incubated in the presence of the molecule to be tested (for a final concentration range from 0.17 nM to 10 μM, final DMSO 3%) in buffer MOPS 10 mM pH 7, DTT 1 mM, Tween 20 0.01%. This pre-incubation is performed in 96 half-well black plates in a volume of 35 μl for 30 minutes at room temperature.
The reaction is initiated by adding 15 μl of a mixture of substrates constituted of biotinylated poly-(GAT) 1 μg/ml final and ATP 10 μM final in the presence of MgCl2 5 mM final for a final volume of 50 μl.
After incubation for 30 min at room temperature, the reaction is stopped with 30 μl of a mixture of Hepes 100 mM final pH 7, potassium fluoride 400 mM final, BSA 0.1% and EDTA 133 mM in the presence of 80 ng per well of antibodies Streptavidin ITS-XL665 Cis-Bio Int. and 18 ng per well of anti-phosphotyrosine PT66 labelled with europium cryptate.
After incubation for 2 hours at room temperature, reading is carried out at 2 wavelengths 620 nm and 665 nm in a Genios TECAN reader for the TRACE/HTRF technique and the percentage inhibition is calculated according to the 665/620 ratios.

[2] = target: T1, MET (Homo sapiens, UniProt P08581); experiment: Test C: inhibition of the autophosphorylation of MET, ELISA technique (pppY1230, 1234, 1235), MKN45 cells; type: cell-based
T1 construct: endogenous in cells; host or cells: MKN45 cells
Method in brief: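 MKN45 cells adhered 24 h, then treated 1 h with compound at 6 concentrations in duplicate, final range 10000 to 30 nM. Lysates assayed by phospho-MET (pY1230/1234/1235) sandwich ELISA with HRP chromogen read at 450 nm.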

T1 sequence (P08581 25-1390): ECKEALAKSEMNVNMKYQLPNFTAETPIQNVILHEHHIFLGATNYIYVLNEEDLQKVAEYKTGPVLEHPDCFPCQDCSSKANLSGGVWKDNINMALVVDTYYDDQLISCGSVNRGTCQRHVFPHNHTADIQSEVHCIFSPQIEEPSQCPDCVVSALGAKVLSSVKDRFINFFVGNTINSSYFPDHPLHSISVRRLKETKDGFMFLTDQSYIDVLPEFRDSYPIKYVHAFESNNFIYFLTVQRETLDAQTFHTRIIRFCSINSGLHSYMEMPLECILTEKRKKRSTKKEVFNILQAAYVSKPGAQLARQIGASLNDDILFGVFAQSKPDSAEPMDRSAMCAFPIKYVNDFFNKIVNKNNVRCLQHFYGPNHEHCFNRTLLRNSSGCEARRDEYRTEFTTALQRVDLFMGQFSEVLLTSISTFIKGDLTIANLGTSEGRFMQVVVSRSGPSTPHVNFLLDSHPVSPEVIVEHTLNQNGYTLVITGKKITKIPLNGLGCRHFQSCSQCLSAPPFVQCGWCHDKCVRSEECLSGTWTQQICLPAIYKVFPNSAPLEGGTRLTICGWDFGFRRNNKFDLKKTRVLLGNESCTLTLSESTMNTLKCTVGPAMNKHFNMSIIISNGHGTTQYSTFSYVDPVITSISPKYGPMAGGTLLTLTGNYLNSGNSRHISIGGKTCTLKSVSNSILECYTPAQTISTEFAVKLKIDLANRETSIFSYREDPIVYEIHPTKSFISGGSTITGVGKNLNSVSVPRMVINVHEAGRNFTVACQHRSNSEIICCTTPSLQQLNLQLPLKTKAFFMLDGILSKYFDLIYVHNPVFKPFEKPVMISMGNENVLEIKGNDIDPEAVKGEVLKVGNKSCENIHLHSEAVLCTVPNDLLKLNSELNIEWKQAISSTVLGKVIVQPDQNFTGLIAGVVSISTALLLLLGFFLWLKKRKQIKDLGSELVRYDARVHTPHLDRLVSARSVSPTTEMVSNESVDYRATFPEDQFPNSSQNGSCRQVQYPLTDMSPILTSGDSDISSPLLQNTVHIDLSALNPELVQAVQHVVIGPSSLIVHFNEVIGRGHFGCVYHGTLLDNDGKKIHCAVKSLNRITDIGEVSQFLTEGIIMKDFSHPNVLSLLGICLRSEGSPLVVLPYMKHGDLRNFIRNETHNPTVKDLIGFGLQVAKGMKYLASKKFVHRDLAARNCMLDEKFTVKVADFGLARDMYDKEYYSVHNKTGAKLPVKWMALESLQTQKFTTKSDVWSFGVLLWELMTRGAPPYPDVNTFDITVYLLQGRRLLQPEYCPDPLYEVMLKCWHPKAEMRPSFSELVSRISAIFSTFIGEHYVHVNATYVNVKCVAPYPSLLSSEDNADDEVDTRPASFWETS
Sequence of RON (Q04912 25-1400): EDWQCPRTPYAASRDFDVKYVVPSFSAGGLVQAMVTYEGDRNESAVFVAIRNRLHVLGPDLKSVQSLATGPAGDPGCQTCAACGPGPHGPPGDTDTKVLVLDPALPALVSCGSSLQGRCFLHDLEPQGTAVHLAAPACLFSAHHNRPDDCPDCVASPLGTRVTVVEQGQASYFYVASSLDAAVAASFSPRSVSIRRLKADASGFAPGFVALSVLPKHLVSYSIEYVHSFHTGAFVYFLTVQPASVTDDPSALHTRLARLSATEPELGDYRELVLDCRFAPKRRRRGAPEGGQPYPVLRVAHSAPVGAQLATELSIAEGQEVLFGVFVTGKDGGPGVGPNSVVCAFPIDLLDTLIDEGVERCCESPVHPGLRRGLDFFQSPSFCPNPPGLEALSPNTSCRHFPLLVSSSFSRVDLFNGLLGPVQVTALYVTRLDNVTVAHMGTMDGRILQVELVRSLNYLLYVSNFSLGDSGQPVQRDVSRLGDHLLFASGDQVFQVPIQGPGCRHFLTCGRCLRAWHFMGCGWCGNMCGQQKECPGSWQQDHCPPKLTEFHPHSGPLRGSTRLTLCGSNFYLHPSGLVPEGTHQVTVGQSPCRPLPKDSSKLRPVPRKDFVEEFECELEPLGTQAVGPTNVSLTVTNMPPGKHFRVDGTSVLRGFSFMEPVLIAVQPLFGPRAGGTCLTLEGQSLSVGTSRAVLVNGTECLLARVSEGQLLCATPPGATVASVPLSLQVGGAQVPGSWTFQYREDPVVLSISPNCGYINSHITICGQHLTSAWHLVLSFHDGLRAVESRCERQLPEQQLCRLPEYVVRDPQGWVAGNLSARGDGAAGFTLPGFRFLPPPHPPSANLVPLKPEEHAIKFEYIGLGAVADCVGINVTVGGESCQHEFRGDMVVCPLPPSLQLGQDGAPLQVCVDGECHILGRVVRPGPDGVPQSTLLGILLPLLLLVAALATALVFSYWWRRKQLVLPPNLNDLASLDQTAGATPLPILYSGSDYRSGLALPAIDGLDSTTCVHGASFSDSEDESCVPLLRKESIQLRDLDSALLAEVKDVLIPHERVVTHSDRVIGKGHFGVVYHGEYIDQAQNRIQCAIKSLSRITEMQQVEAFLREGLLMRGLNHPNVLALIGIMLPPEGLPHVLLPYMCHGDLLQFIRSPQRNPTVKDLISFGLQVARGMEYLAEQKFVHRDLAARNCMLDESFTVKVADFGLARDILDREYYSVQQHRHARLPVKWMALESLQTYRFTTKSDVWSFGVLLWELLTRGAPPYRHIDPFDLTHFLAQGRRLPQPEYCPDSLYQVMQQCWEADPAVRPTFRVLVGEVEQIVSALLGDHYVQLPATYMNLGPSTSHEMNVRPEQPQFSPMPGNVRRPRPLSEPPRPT

| Structure (SMILES) | IC50 [1] | IC50 [2] |
| --- | --- | --- |
| CC(Oc1cc2sc(NC(=O)NCCCN)nc2cc1F)c1c(Cl)ccc(F)c1Cl (stereo not shown) [Example 128, 1-(3-aminopropyl)-3-{6-[1-(2,6-dichloro-3-fluorophenyl)ethoxy]-5-fluoro-1,3-benzothiazol-2-yl}urea] | 500 to 10000 nM | < 500 nM |
| CC(Oc1ccc2nc(NC(=O)NCCN3CCCCC3)sc2c1)c1c(Cl)ccc(F)c1Cl (stereo not shown) [Example 50, 1-{6-[1-(2,6-dichloro-3-fluorophenyl)ethoxy]-1,3-benzothiazol-2-yl}-3-(2-piperidin-1-ylethyl)urea] | 500 to 10000 nM | < 500 nM |
| CC(Oc1ccc2nc(NC(=O)NCCCN3CCCCC3)sc2c1)c1c(Cl)ccc(F)c1Cl (stereo not shown) [Example 44, 1-{6-[1-(2,6-dichloro-3-fluorophenyl)ethoxy]-1,3-benzothiazol-2-yl}-3-(3-piperidin-1-ylpropyl)urea] | 500 to 10000 nM | < 500 nM |
| CC(Oc1ccc2nc(NC(=O)NCCN3CCN(Cc4ccccc4)CC3)sc2c1)c1c(Cl)ccc(F)c1Cl (stereo not shown) [Example 35, 1-[2-(4-benzylpiperazin-1-yl)ethyl]-3-{6-[1-(2,6-dichloro-3-fluorophenyl)ethoxy]-1,3-benzothiazol-2-yl}urea] | 500 to 10000 nM | 500 to 10000 nM |
| O=C(NCCN1CCOCC1)Nc1nc2ccc(OC(c3c(Cl)cccc3Cl)C(F)(F)F)cc2s1 (stereo not shown) [Example 64, 1-{6-[1-(2,6-dichlorophenyl)-2,2,2-trifluoroethoxy]-1,3-benzothiazol-2-yl}-3-(2-morpholin-4-ylethyl)urea] | 500 to 10000 nM | 500 to 10000 nM |
| CC(Oc1ccc2nc(NC(=O)NCCCN3CCOCC3)sc2c1)c1c(Cl)ccc(F)c1Cl (stereo not shown) [Example 42, 1-{6-[1-(2,6-dichloro-3-fluorophenyl)ethoxy]-1,3-benzothiazol-2-yl}-3-(3-morpholin-4-ylpropyl)urea] | 500 to 10000 nM | < 500 nM |
| CC(Oc1ccc2nc(NC(=O)NCCN3CCC(Cc4ccccc4)CC3)sc2c1)c1c(Cl)ccc(F)c1Cl (stereo not shown) [Example 34, 1-[2-(4-benzylpiperidin-1-yl)ethyl]-3-{6-[1-(2,6-dichloro-3-fluorophenyl)ethoxy]-1,3-benzothiazol-2-yl}urea] | 500 to 10000 nM | 500 to 10000 nM |
| CC(Oc1ccc2nc(NC(=O)NCCN3CCOCC3)sc2c1)c1c(Cl)ccc(Cl)c1Cl (stereo not shown) [Example 124, 1-[2-(morpholin-4-yl)ethyl]-3-{6-[1-(2,3,6-trichlorophenyl)ethoxy]-1,3-benzothiazol-2-yl}urea] | 500 to 10000 nM | < 500 nM |
| CC(Oc1ccc2nc(NC(=O)NCCN3CCOCC3)sc2c1)c1c(F)ccc(F)c1F (stereo not shown) [Example 60, 1-(2-morpholin-4-ylethyl)-3-{6-[1-(2,3,6-trifluorophenyl)ethoxy]-1,3-benzothiazol-2-yl}urea] | 500 to 10000 nM | 500 to 10000 nM |
| CC(Oc1ccc2nc(NC(=O)NCCN3CCNCC3)sc2c1)c1c(Cl)ccc(F)c1Cl.O=C(O)C(F)(F)F (stereo not shown) [Example 37, 1-{6-[1-(2,6-Dichloro-3-fluorophenyl)ethoxy]-1,3-benzothiazol-2-yl}-3-(2-piperazin-1-ylethyl)urea trifluoroacetate] | < 500 nM | < 500 nM |
| CC(Oc1ccc2nc(NC(=O)NCCN3CCOCC3)sc2c1)c1c(F)ccc(Cl)c1Cl (stereo not shown) [Example 61, 1-{6-[1-(2,3-dichloro-6-fluorophenyl)ethoxy]-1,3-benzothiazol-2-yl}-3-(2-morpholin-4-ylethyl)urea] | < 500 nM | < 500 nM |
| CC(Oc1ccc2nc(NC(=O)NCCN3CCCC3)sc2c1)c1c(F)ccc(Cl)c1Cl (stereo not shown) [Example 120, 1-{6-[1-(2,3-dichloro-6-fluorophenyl)ethoxy]-1,3-benzothiazol-2-yl}-3-[2-(pyrrolidin-1-yl)ethyl]urea] | < 500 nM | < 500 nM |
| CC(Oc1cc2sc(NC(=O)NCCN3CCCC3)nc2cc1F)c1c(F)ccc(Cl)c1Cl (single isomer, unassigned) [Example 119, 1-{6-[(1R*)-1-(2,3-dichloro-6-fluorophenyl)ethoxy]-5-fluoro-1,3-benzothiazol-2-yl}-3-[2-(pyrrolidin-1-yl)ethyl]urea] | 500 to 10000 nM | < 500 nM |
| CCN(CC)CCCOC(=O)Nc1nc2cc(F)c(OC(C)c3c(Cl)ccc(F)c3Cl)cc2s1 (stereo not shown) [Example 70] | 500 to 10000 nM | 500 to 10000 nM |
| CC(Oc1ccc2nc(NC(=O)NCCN3CCOCC3)[nH]c2c1)c1c(Cl)cccc1Cl (stereo not shown) [Example 2, 1-{6-[1-(2,6-dichlorophenyl)ethoxy]-1H-benzimidazol-2-yl}-3-(2-morpholin-4-ylethyl)urea] | 500 to 10000 nM | 500 to 10000 nM |
| CCN1CCN(CCNC(=O)Nc2nc3cc(F)c(OC(C)c4c(Cl)ccc(F)c4Cl)cc3s2)CC1 (single isomer, unassigned) [Example 102, 1-{6-[(1S*)-1-(2,6-dichloro-3-fluorophenyl)ethoxy]-5-fluoro-1,3-benzothiazol-2-yl}-3-[2-(4-ethylpiperazin-1-yl)ethyl]urea] | 500 to 10000 nM | 500 to 10000 nM |
| CC(Oc1ccc2nc(NC(=O)NCCCN3CCC(Cc4ccccc4)CC3)sc2c1)c1c(Cl)ccc(F)c1Cl (stereo not shown) [Example 41, 1-[3-(4-benzylpiperidin-1-yl)propyl]-3-{6-[1-(2,6-dichloro-3-fluorophenyl)ethoxy]-1,3-benzothiazol-2-yl}urea] | 500 to 10000 nM | 500 to 10000 nM |
| CC(Oc1cc2sc(NC(=O)CN3CCNCC3)nc2cc1F)c1c(Cl)ccc(F)c1Cl (stereo not shown) [Example 69, N-{6-[1-(2,6-dichloro-3-fluorophenyl)ethoxy]-5-fluoro-1,3-benzothiazol-2-yl}-2-(piperazin-1-yl)acetamide] | 500 to 10000 nM | < 500 nM |
| CC(Oc1cc2sc(NC(=O)NCCCO)nc2cc1F)c1c(Cl)ccc(F)c1Cl (stereo not shown) [Example 105, 1-{6-[1-(2,6-dichloro-3-fluorophenyl)ethoxy]-5-fluoro-1,3-benzothiazol-2-yl}-3-(3-hydroxypropyl)urea] | < 500 nM | < 500 nM |
| CC(Oc1ccc2nc(NC(=O)C3CC3)sc2c1)c1c(Cl)ccc(F)c1Cl (stereo not shown) [Example 66, N-{6-[1-(2,6-dichloro-3-fluorophenyl)ethoxy]-1,3-benzothiazol-2-yl}cyclopropanecarboxamide] | 500 to 10000 nM | < 500 nM |
| CC(Oc1cc2sc(NC(=O)NCCN3CCOCC3)nc2cc1F)c1c(F)ccc(Cl)c1Cl (single isomer, unassigned) [Example 113, 1-{6-[(1S*)-1-(2,3-dichloro-6-fluorophenyl)ethoxy]-5-fluoro-1,3-benzothiazol-2-yl}-3-[2-(morpholin-4-yl)ethyl]urea] | 500 to 10000 nM | < 500 nM |
| CC(Oc1cc2sc(NC(=O)NCCN3CCOCC3)nc2cc1F)c1c(F)ccc(Cl)c1Cl (stereo not shown) [Example 111, 1-{6-[1-(2,3-dichloro-6-fluorophenyl)ethoxy]-5-fluoro-1,3-benzothiazol-2-yl}-3-[2-(morpholin-4-yl)ethyl]urea] | 500 to 10000 nM | 500 to 10000 nM |
| CC(Oc1ccc2nc(NC(=O)NCCN3CCN(C)CC3)sc2c1)c1c(F)ccc(Cl)c1Cl (single isomer, unassigned) [Example 109, 1-{6-[(1R*)-1-(2,3-dichloro-6-fluorophenyl)ethoxy]-1,3-benzothiazol-2-yl}-3-[2-(4-methylpiperazin-1-yl)ethyl]urea] | < 500 nM | < 500 nM |
